In patent US20250361240A1, “PYRANOPYRIDINE COMPOUND, PROCESS FOR PREPARING THE SAME, PHARMACEUTICAL COMPOSITION AND USE THEREOF” (Zhejiang Yangli Pharmaceutical Technology Co., Ltd., priority 2024, published 2025):

Key:
aldosterone synthesis = assay: Pharmacodynamic test in cynomolgus monkeys with ACTH stimulation: aldosterone in plasma; assay type: in vivo, cynomolgus monkeys (Macaca fascicularis)
Text: Adult cynomolgus monkeys (Macaca fascicularis) with suitable body weight and age were selected. 1 male and 1 female cynomolgus monkeys were used for experiment. The adaptation period was 1 week. On the day of the experiment, monkeys were individually housed in stainless steel mesh cages for testing.
Oral treatment and ACTH working solution (working solution diluted to the desired concentration in PBS sterile solution by ultrapure water filtration through a 0.22 μm filter using Tetracosactrin (HY-P0060, MCE)) were administered as follows: • T=0, 2 monkeys in each group were orally administered 0.5 mg/kg (compound was suspended in 5% aqueous sodium hydroxymethylcellulose solution as vehicle) in a fixed volume of 2 mL/kg; • T=+1 hour (i.e., 1 hour after administration), 14.5 μg/kg of the aforementioned ACTH working solution was injected intramuscularly.
Sampling test: Blood samples (collected in EDTA anticoagulant tubes) were collected before oral administration (Pre-dose) and 0.5 h, 1 h, 2 h, 4 h, 6 h and 12 h after administration for cortisol concentration measurement in plasma. The blood was centrifuged at 10000 rpm for 15 minutes at 4° C., followed by separation of the plasma and uniform storage at −80° C. for further analysis using an Roche biochemical analyzer to detect aldosterone and cortisol in plasma, and a portion of the plasma (0.5 h, 1 h, 2 h, 4 h, 6 h, and 12 h after administration, and an additional blood collection after 24 h) was taken simultaneously to determine the pharmacokinetic parameters by LC/MS.
The above experiment was repeated except that: T=0, two monkeys in each group were orally administered at a dose of 0.05 mg/kg (compound was suspended in 5% aqueous sodium hydroxymethylcellulose as vehicle) in a fixed volume of 2 mL/kg.

aldosterone synthase = aldosterone synthase (Homo sapiens (Human), UniProt P19099); conditions: phase I clinical study, cited from earlier work
aldosterone synthase, sequence (P19099 25-503): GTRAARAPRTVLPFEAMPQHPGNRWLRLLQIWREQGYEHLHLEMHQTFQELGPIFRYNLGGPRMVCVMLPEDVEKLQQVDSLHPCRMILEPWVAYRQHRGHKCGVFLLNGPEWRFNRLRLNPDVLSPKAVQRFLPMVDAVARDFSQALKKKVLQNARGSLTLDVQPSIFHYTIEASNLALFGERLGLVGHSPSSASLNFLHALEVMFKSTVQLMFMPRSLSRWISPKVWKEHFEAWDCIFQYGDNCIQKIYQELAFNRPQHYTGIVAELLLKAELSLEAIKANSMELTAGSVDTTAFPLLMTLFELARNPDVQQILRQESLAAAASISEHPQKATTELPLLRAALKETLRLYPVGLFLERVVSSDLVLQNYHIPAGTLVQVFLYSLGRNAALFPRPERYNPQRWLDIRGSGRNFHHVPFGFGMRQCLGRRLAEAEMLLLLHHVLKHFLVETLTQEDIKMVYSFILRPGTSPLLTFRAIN

CYP1A2 = CYP1A2 (Homo sapiens (Human), UniProt P05177); assay: In vitro inhibitory activity against common CYP450 enzymes: CYP1A2; assay type: in vitro ADME; conditions: microsomes, substrate Phenacetin; read-out: IC50 CYP1A2
CYP1A2, sequence (P05177 whole entry): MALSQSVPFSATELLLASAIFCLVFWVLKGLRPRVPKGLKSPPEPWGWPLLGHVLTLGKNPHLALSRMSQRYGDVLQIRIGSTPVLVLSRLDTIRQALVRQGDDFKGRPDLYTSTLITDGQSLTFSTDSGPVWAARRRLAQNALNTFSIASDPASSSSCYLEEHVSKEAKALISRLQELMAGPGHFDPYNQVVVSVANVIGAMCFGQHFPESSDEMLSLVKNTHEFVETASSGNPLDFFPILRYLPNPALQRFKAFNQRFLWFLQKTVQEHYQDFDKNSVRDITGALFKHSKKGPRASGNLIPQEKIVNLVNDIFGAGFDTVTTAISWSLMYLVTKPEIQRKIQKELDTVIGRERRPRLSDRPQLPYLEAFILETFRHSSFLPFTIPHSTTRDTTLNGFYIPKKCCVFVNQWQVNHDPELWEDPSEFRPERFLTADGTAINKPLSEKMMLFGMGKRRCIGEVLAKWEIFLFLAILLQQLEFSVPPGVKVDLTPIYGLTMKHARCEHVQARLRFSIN
Protocol: (§1) A working solution of the test compound was prepared in a solvent of dimethyl sulfoxide (DMSO) (starting at a final concentration of 50 μM, 3-fold dilution of 7 concentration points). The corresponding microsomes (CORNING, Cat No.452117) and the corresponding substrate solution were prepared (components were shown in Table 2). The working solution of the test compound and the corresponding microsomes were mixed with the corresponding substrate solution and the HLM working solution. The mixture was preheated in a 37.0° C. water bath for 10 min. NADPH cofactor (BONTAC, Cat No.BT04) was added. The resultant mixture was incubated for 10 min in a 37.0° C. water bath. The reaction was terminated by adding cold stop solution. [table] [table] The sample was centrifuged at 4000 rpm for 20 min to precipitate protein and the supernatant was transferred to HPLC water and shaken for 10 min.

CYP2C19 = CYP2C19 (Homo sapiens (Human), UniProt P33261); assay: In vitro inhibitory activity against common CYP450 enzymes: CYP2C19; assay type: in vitro ADME; conditions: microsomes, substrate (S)-(+)-Mephenytoin
CYP2C19, sequence (P33261 whole entry): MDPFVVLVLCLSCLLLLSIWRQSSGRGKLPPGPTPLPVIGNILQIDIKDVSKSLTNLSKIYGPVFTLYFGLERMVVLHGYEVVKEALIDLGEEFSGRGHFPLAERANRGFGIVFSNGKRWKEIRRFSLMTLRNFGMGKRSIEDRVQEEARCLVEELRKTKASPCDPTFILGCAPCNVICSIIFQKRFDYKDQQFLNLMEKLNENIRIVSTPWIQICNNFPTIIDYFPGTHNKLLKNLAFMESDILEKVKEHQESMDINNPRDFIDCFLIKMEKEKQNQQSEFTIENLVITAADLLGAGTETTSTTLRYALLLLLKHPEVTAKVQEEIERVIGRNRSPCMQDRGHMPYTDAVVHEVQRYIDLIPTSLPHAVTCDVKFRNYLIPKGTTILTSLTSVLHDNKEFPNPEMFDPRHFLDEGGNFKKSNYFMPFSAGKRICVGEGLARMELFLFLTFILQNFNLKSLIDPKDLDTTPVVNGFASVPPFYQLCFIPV
Protocol: as §1

human CYP11B2 = human CYP11B2 (Homo sapiens (Human), UniProt P19099); assay: Inhibitory activity against hCYP11B2 in G-402 CYP11B2 high expression stable transformants (aldosterone HTRF); assay type: cell-based
human CYP11B2, sequence (P19099 25-503): as the sequence (P19099 25-503) above
Protocol: 1. Experimental System: G-402 CYP11B2 or CYP11B1 High Expression Stable Transformants
The above-mentioned high-expression stable transformants were constructed based on human […] cell line G-402. The artificial lentiviruses were introduced into human CYP11B2 (NM_000498.3) and CYP11B1 (NM_000497.4), respectively.
Maintenance medium: McCoy's 5A (modified, #16600082, GIBCO)+10% FBS (GIBCO)+1 μg/mL puromycin (A1113803, GIBCO).
Resuscitation and seeding medium: McCoy's 5A (modified, #16600082, GIBCO)+10% FBS (GIBCO).
Reaction medium: DMEM/F12 (#11320033, GIBCO)+2.5% activated charcoal filtered FBS (S11695, R & D).
Seeding: Cells were cultured to a suitable state after resuscitation with maintenance medium, and 96-well flat plates were seeded with seeding medium according to 1×10^4/100 μL/well (unified cell volume).
Changing solution: The supernatant was aspirated and discarded after seeding overnight (>12 hours) and adherence. 100-150 μL/well serum-free medium was added, and after being aspirated. After aspiration, 50 μL/well reaction medium was added for later use.
Formulation: Compound was diluted with reaction medium containing 0.4 μM substrate (final experimental concentration is 0.2 μM):
CYP11B2 substrate: 11-deoxycorticosterone (11-deoxycorticosterone, S4243, selleckchem). The final reaction concentration was 0.2 μM
Loading: The above compound dilutions were added to the cell plates at 50 μL/well. The background and control wells were set.
Treating and sampling: The cell plates were incubated in a cell incubator for 16 hours after loading, and then each cell plate was centrifuged at 450 g for 2 min. 75 μL supernatant was transferred to a collection plate and frozen at −80° C. for future use (or direct detection).
Detection: Homogeneous time-resolved fluorescence kit (Cisbio HTRF kit, Cat.64ALDPEG, Cat.62CRTPEG) was used to determine the concentration of aldosterone or cortisol in the supernatant.
Analysis: The absolute IC50 (Abs IC50) for each compound was calculated using a four parameter fit.

CYP2C9 = CYP2C9 (Homo sapiens (Human), UniProt P11712); assay: In vitro inhibitory activity against common CYP450 enzymes: CYP2C9; assay type: in vitro ADME; conditions: microsomes, substrate Diclofenac
CYP2C9, sequence (P11712 whole entry): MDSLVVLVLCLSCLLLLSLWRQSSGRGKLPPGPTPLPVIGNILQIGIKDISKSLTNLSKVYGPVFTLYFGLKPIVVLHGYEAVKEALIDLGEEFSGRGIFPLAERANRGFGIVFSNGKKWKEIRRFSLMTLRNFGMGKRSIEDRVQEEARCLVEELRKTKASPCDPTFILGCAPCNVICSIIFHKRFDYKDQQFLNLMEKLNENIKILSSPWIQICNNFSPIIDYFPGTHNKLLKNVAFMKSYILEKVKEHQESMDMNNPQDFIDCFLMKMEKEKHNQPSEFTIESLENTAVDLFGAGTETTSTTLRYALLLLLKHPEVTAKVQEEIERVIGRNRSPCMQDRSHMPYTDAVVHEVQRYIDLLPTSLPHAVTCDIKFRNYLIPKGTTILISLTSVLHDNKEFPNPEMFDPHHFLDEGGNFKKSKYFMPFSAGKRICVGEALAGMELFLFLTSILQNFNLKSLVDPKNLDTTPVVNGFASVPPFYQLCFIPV
Protocol: as §1

CYP3A = CYP3A (Homo sapiens, UniProt P08684); assay: In vitro inhibitory activity against common CYP450 enzymes: CYP3A (midazolam); assay type: in vitro ADME; conditions: human, human liver microsomes, probe Midazolam, substrate Midazolam
CYP3A, sequence (P08684 2-503 limits assumed): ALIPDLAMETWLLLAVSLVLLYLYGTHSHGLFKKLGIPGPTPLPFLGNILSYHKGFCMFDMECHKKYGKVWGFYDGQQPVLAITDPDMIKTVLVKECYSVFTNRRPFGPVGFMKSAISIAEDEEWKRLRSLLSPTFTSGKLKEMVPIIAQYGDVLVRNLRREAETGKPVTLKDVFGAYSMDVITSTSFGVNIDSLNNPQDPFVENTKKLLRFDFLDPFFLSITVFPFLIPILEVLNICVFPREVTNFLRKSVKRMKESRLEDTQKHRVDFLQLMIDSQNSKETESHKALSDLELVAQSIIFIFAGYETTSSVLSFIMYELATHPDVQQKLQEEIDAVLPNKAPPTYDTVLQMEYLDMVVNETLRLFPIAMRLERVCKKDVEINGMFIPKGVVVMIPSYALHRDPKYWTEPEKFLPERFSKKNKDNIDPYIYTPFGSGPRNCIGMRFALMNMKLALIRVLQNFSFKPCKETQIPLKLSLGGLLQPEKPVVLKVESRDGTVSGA
Protocol: as §1

CCC(=O)N[C@@H]1CCCc2c(-c3ccc4c(c3)CCC(=O)N4C)cncc21 [Baxdrostat, reference compound]
Aldosterone Concentration in Plasma (aldosterone synthesis; 0.05 mg/kg oral, 0.5 h): 846.13 pg/mL | Aldosterone Concentration in Plasma (aldosterone synthesis; 0.05 mg/kg oral, 1 h (ACTH at +1 hour)): 964.09 pg/mL | Aldosterone Concentration in Plasma (aldosterone synthesis; 0.05 mg/kg oral, 2 h): 568.08 pg/mL | Aldosterone Concentration in Plasma (aldosterone synthesis; 0.05 mg/kg oral, 4 h): 119.97 pg/mL | Aldosterone Concentration in Plasma (aldosterone synthesis; 0.05 mg/kg oral, 6 h): 101.14 pg/mL | Aldosterone Concentration in Plasma (aldosterone synthesis; 0.05 mg/kg oral, 12 h): 139.85 pg/mL | Aldosterone Concentration in Plasma (aldosterone synthesis; 0.05 mg/kg oral, Pre-dose): 292.42 pg/mL | Aldosterone Concentration in Plasma (aldosterone synthesis; 0.5 mg/kg oral, 0.5 h): 593.37 pg/mL | Aldosterone Concentration in Plasma (aldosterone synthesis; 0.5 mg/kg oral, 1 h (ACTH at +1 hour)): 361.74 pg/mL | Aldosterone Concentration in Plasma (aldosterone synthesis; 0.5 mg/kg oral, 2 h): 119.96 pg/mL | Aldosterone Concentration in Plasma (aldosterone synthesis; 0.5 mg/kg oral, 4 h): 83.97 pg/mL | Aldosterone Concentration in Plasma (aldosterone synthesis; 0.5 mg/kg oral, 6 h): 86.11 pg/mL | Aldosterone Concentration in Plasma (aldosterone synthesis; 0.5 mg/kg oral, 12 h): 92.61 pg/mL | Aldosterone Concentration in Plasma (aldosterone synthesis; 0.5 mg/kg oral, Pre-dose): 126.77 pg/mL | reduction of aldosterone level in plasma (aldosterone synthase; dose-dependent): more than 70% | inhibition of aldosterone synthase relative to inhibition of cortisol synthesis (aldosterone synthase): 100 times | IC50 (CYP1A2): > 50 µM | IC50 (CYP2C19): 6.52 µM | IC50 (human CYP11B2; G-402 CYP11B2 cells, 0.2 μM 11-deoxycorticosterone, 16 hours, read-out: hCYP11B2 (AS) Abs IC50): 0.0281 µM | hCYP11B ½ Selectivity Fold (human CYP11B2; hCYP11B1 IC50 relative to hCYP11B2 IC50): 119.99 Fold | IC50 (CYP2C9): 35.2 µM | IC50 at 10 min (CYP3A): > 50 µM
